Assay: Solubility characterization of 2,6-diphenyl-4,8-diazoadamantan-1-one
Type: physicochemical
Text: This molecule is soluble in propylene glycol and apolar organic solvents, whereas it is insoluble in water and ethanol.

2,6-diphenyl-4,8-diazoadamantan-1-one
solubility in apolar organic solvents (solvent: apolar organic solvents): soluble | solubility in ethanol (solvent: ethanol): insoluble | solubility in propylene glycol (solvent: propylene glycol): soluble | solubility in water (solvent: water): insoluble

From patent US20100069415A1, “2,6-DIPHENYL-4,8-DIAZOADAMANTAN-1-ONE AND DERIVATIVES THEREOF, PROCESS OF MANUFACTURE AND USE FOR THE FORMULATION OF SOLUTIONS WITH STERILIZING AND DISINFECTANT EFFECT” (PIETRO AFFAITATI, priority 2006, published 2010)
